In patent US12655116B2, “Substituted isophthalic acid diamides” (Bayer Aktiengesellschaft, priority 2020, dated 2026):

Legend:
ABUTH [1] = test: Pre-emergence herbicidal action against ABUTH; type: in vivo, Abutilon theophrasti; settings: Abutilon theophrasti, 504 h; for pest or weed control at 80 g/ha: scored visually after 3 weeks vs untreated controls (100% = plants have died, 0% = like control plants); for pest or weed control at 320 g/ha: Dosage: 320 g/ha, scored visually after 3 weeks, 100% = plants have died, 0% = like control plants
Method in brief: (§1)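 Seeds sown in sandy loam, soil-covered; compound sprayed on soil surface pre-emergence. Application: WP/EC, 600–800 l/ha, 0.2% wetting agent. Readout: visual % damage at 3 weeks.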

ALOMY [2] = test: Pre-emergence herbicidal action against ALOMY; type: in vivo, Alopecurus myosuroides; settings: Alopecurus myosuroides, 504 h, pre-emergence; for pest or weed control at 320 g/ha: scored visually after 3 weeks, 100% = plants have died, 0% = like control plants
Method in brief: as §1

AMARE = test: Pre-emergence herbicidal action against AMARE; type: in vivo, Amaranthus retroflexus; settings: Amaranthus retroflexus, 504 h, 100% = plants have died, 0% = like control plants; for pest or weed control at 80 g/ha: scored visually after 3 weeks vs untreated controls; for pest or weed control at 320 g/ha: scored visually after 3 weeks
Method in brief: as §1

AVEFA [3] = test: Pre-emergence herbicidal action against AVEFA; type: in vivo, Avena fatua; settings: Avena fatua, 504 h, pre-emergence; for pest or weed control at 320 g/ha: scored visually after 3 weeks, 100% = plants have died, 0% = like control plants
Method in brief: as §1

HORMU [4] = test: Pre-emergence herbicidal action against HORMU; type: in vivo, Hordeum murinum; settings: Hordeum murinum, 504 h, pre-emergence
Method in brief: as §1

LOLRI = test: Pre-emergence herbicidal action against LOLRI; type: in vivo, Lolium rigidum; settings: Lolium rigidum, 504 h, 320 g/ha
Method in brief: as §1

MATIN [5] = test: Pre-emergence herbicidal action against MATIN; type: in vivo, Matricaria inodora; settings: Tripleurospermum inodorum, 504 h; for pest or weed control at 80 g/ha: dosage 80 g/ha; for pest or weed control at 320 g/ha: dosage 320 g/ha
Method in brief: as §1

POLCO [6] = test: Pre-emergence herbicidal action against POLCO; type: in vivo, Polygonum convolvulus; settings: Fallopia convolvulus, 504 h, dosage 320 g/ha
Method in brief: as §1

SETVI = test: Pre-emergence herbicidal action against SETVI; type: in vivo, Setaria viridis; settings: Setaria viridis, 504 h; for pest or weed control at 80 g/ha: dosage 80 g/ha; for pest or weed control at 320 g/ha: dosage 320 g/ha
Method in brief: as §1

STEME [7] = test: Pre-emergence herbicidal action against STEME; type: in vivo, Stellaria media; settings: Stellaria media, 504 h; for pest or weed control at 80 g/ha: dosage 80 g/ha; for pest or weed control at 320 g/ha: dosage 320 g/ha
Method in brief: as §1

VERPE [8] = test: Pre-emergence herbicidal action against VERPE; type: in vivo, Veronica persica; settings: Veronica persica, 504 h; for pest or weed control at 320 g/ha: dosage 320 g/ha
Method in brief: as §1

ABUTH [9] = test: Post-emergence herbicidal action against ABUTH; type: in vivo, Abutilon theophrasti; settings: Abutilon theophrasti, 504 h, visual assessment about 3 weeks after treatment vs untreated controls; for pest or weed control at 20 g/ha: dosage 20 g/ha; for pest or weed control at 80 g/ha: dosage 80 g/ha
Method in brief: (§2)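 Percent herbicidal action is rated by eye about 3 weeks after treatment against untreated controls, where 100% means dead plants and 0% means like controls. Plants in sandy loam are sprayed on green parts at the one-leaf stage with aqueous WP or EC preparations at 600 to 800 l/ha plus 0.2% wetting agent.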

ALOMY [10] = test: Post-emergence herbicidal action against ALOMY; type: in vivo, Alopecurus myosuroides; settings: Alopecurus myosuroides, 504 h, visual assessment about 3 weeks after treatment vs untreated controls; for pest or weed control at 80 g/ha: dosage 80 g/ha
Method in brief: as §2

AVEFA [11] = test: Post-emergence herbicidal action against AVEFA; type: in vivo, Avena fatua; settings: Avena fatua, 504 h, visual assessment about 3 weeks after treatment, 100% = plants have died, 0% = like control plants
Method in brief: as §2

ECHCG = test: Post-emergence herbicidal action against ECHCG; type: in vivo, Echinochloa crus-galli; settings: Echinochloa crus-galli, 504 h; for pest or weed control at 20 g/ha: dosage 20 g/ha; for pest or weed control at 80 g/ha: dosage 80 g/ha
Method in brief: as §2

HORMU [12] = test: Post-emergence herbicidal action against HORMU; type: in vivo, Hordeum murinum; settings: Hordeum murinum, 504 h; for pest or weed control at 80 g/ha: dosage 80 g/ha
Method in brief: as §2

MATIN [13] = test: Post-emergence herbicidal action against MATIN; type: in vivo, Matricaria inodora; settings: Tripleurospermum inodorum, 504 h; for pest or weed control at 20 g/ha: dosage 20 g/ha; for pest or weed control at 80 g/ha: dosage 80 g/ha
Method in brief: as §2

POLCO [14] = test: Post-emergence herbicidal action against POLCO; type: in vivo, Polygonum convolvulus; settings: Fallopia convolvulus, 504 h, dosage 80 g/ha
Method in brief: as §2

STEME [15] = test: Post-emergence herbicidal action against STEME; type: in vivo, Stellaria media; settings: Stellaria media, 504 h
Method in brief: as §2

VERPE [16] = test: Post-emergence herbicidal action against VERPE; type: in vivo, Veronica persica; settings: Veronica persica, 504 h
Method in brief: as §2

VIOTR = test: Post-emergence herbicidal action against VIOTR; type: in vivo, Viola tricolor; settings: Viola tricolor, 504 h
Method in brief: as §2

Structure (SMILES): CCNC(=O)c1c(C(F)F)ccc(C(=O)Nc2nnnn2C)c1Cl [Example 1-148]
- pest or weed control at 80 g/ha (ABUTH [1]): 100%
- pest or weed control at 320 g/ha (ABUTH [1]): 100%
- pest or weed control at 80 g/ha (ALOMY [2]; 80 g/ha, scored visually after 3 weeks vs untreated controls (100% = plants have died, 0% = like control plants)): 90%
- pest or weed control at 320 g/ha (ALOMY [2]): 100%
- pest or weed control at 80 g/ha (AMARE): 100%
- pest or weed control at 320 g/ha (AMARE): 100%
- pest or weed control at 80 g/ha (AVEFA [3]): 100%
- pest or weed control at 320 g/ha (AVEFA [3]): 100%
- pest or weed control at 80 g/ha (HORMU [4]): 90%
- pest or weed control at 320 g/ha (HORMU [4]): 100%
- pest or weed control at 320 g/ha (LOLRI): 90%
- pest or weed control at 80 g/ha (MATIN [5]): 100%
- pest or weed control at 320 g/ha (MATIN [5]): 100%
- pest or weed control at 320 g/ha (POLCO [6]): 80%
- pest or weed control at 80 g/ha (SETVI): 100%
- pest or weed control at 320 g/ha (SETVI): 100%
- pest or weed control at 80 g/ha (STEME [7]): 100%
- pest or weed control at 320 g/ha (STEME [7]): 100%
- pest or weed control at 80 g/ha (VERPE [8]; dosage 80 g/ha): 80%
- pest or weed control at 320 g/ha (VERPE [8]): 100%
- pest or weed control at 20 g/ha (ABUTH [9]): 90%
- pest or weed control at 80 g/ha (ABUTH [9]): 90%
- pest or weed control at 20 g/ha (ALOMY [10]; dosage 20 g/ha): 80%
- pest or weed control at 80 g/ha (ALOMY [10]): 90%
- pest or weed control at 20 g/ha (AVEFA [11]): 100%
- pest or weed control at 80 g/ha (AVEFA [11]): 100%
- pest or weed control at 20 g/ha (ECHCG): 80%
- pest or weed control at 80 g/ha (ECHCG): 80%
- pest or weed control at 80 g/ha (HORMU [12]): 90%
- pest or weed control at 20 g/ha (MATIN [13]): 100%
- pest or weed control at 80 g/ha (MATIN [13]): 100%
- pest or weed control at 80 g/ha (POLCO [14]): 80%
- pest or weed control at 20 g/ha (STEME [15]): 90%
- pest or weed control at 80 g/ha (STEME [15]): 90%
- pest or weed control at 20 g/ha (VERPE [16]): 80%
- pest or weed control at 80 g/ha (VERPE [16]): 80%
- pest or weed control at 20 g/ha (VIOTR): 80%
- pest or weed control at 80 g/ha (VIOTR): 90%

Structure (SMILES): CCNC(=O)c1c(C(F)(F)F)ccc(C(=O)Nc2nnnn2CC)c1SC [Example 2-82]
- pest or weed control at 80 g/ha (ABUTH [1]): 100%
- pest or weed control at 320 g/ha (ABUTH [1]): 100%
- pest or weed control at 320 g/ha (ALOMY [2]): 100%
- pest or weed control at 80 g/ha (AMARE): 100%
- pest or weed control at 320 g/ha (AMARE): 100%
- pest or weed control at 80 g/ha (AVEFA [3]): 100%
- pest or weed control at 320 g/ha (AVEFA [3]): 100%
- pest or weed control at 80 g/ha (HORMU [4]): 80%
- pest or weed control at 320 g/ha (HORMU [4]): 100%
- pest or weed control at 320 g/ha (LOLRI): 90%
- pest or weed control at 80 g/ha (MATIN [5]): 100%
- pest or weed control at 320 g/ha (MATIN [5]): 100%
- pest or weed control at 320 g/ha (POLCO [6]): 90%
- pest or weed control at 80 g/ha (SETVI): 100%
- pest or weed control at 320 g/ha (SETVI): 100%
- pest or weed control at 80 g/ha (STEME [7]): 100%
- pest or weed control at 320 g/ha (STEME [7]): 100%
- pest or weed control at 320 g/ha (VERPE [8]): 90%
- pest or weed control at 20 g/ha (ABUTH [9]): 90%
- pest or weed control at 80 g/ha (ABUTH [9]): 90%
- pest or weed control at 80 g/ha (ALOMY [10]): 90%
- pest or weed control at 20 g/ha (AVEFA [11]): 90%
- pest or weed control at 80 g/ha (AVEFA [11]): 90%
- pest or weed control at 20 g/ha (ECHCG): 80%
- pest or weed control at 80 g/ha (ECHCG): 80%
- pest or weed control at 20 g/ha (HORMU [12]; dosage 20 g/ha): 80%
- pest or weed control at 80 g/ha (HORMU [12]): 90%
- pest or weed control at 20 g/ha (MATIN [13]): 90%
- pest or weed control at 80 g/ha (MATIN [13]): 90%
- pest or weed control at 80 g/ha (POLCO [14]): 80%
- pest or weed control at 20 g/ha (STEME [15]): 80%
- pest or weed control at 80 g/ha (STEME [15]): 90%
- pest or weed control at 20 g/ha (VERPE [16]): 80%
- pest or weed control at 80 g/ha (VERPE [16]): 90%
- pest or weed control at 20 g/ha (VIOTR): 80%
- pest or weed control at 80 g/ha (VIOTR): 80%
